In general, EC50 refers to the concentration at which the effect is half-maximal.

This passage reports EC50 results from patent publication US20240279278A1, “NMU RECEPTOR 2 AGONISTS” (Boehringer Ingelheim International GmbH, priority 2023, published 2024).

Molecules are shown by their SMILES. Residues, ends and D or L forms follow the SMILES beside them.

For assay [1], the target named is T1, human NMUR2 receptor (Homo sapiens, UniProt Q9GZQ4). Nature of the assay: IP1 Gq HTRF assay, activation of human NMUR2 in buffer. The class given is cell-based. On the set-up: expressed in transfected cells; host or cells: CHO-K1. To be noted: CHO-K1 cells expressing human NMUR2, stimulation buffer with 0.1% BSA; read-out: EC50 (hNMUR2) buffer. The text has this: Example 3: IP1 Gq HTRF Assay Activation of Human NMUR2 or Human NMUR1 in Buffer Application of the Homogenous Time Resolved Fluorescence (HTRF) technology optimized for Gq coupled receptors has been described in detail in the Cisbio IP-One Gq kit manual. In brief, a FRET signal (FRET: fluorescence resonance energy transfer) is generated between the donor label of an IP-One antibody (anti-IP1-Tb) and the acceptor label of a tagged IP-One (IP1-d2). Agonism of a Gq coupled receptor increases intracellular IP-One, which competes with labeled IP-One and leads to a reduction of the FRET signal. Frozen stocks of CHO-K1 cells stably expressing the human NMUR1 or NMUR2 receptor were thawed and 5000 cells were seeded in culture medium (HAM'S F12, 10% FCS) into each well of a 384-well assay plate. After seeding, cells were incubated for 24 h in a humidified incubator at 37° C. and 5% CO2. Next, cells were washed once with 50 μL of wash buffer (20 mM Hepes, 1×HBSS, pH 7.4), followed by addition of either 10 μL of stimulation buffer (20 mM Hepes, 1×HBSS, 50 mM LiCl, 0.1% BSA, pH 7.4). Peptide agonists to be tested were dissolved in 100% DMSO and pre-diluted in stimulation buffer at a suitable concentration range for an 8 pt dose-response curve. 5 μL of peptide pre-dilution were then added to each well, followed by another 5 μL of stimulation buffer to give a final concentration of 1% DMSO. Samples were subsequently incubated for 1 hour in a humidified incubator at 37° C. After addition of 5 μL each of IP1-d2 and anti-IP1-Tb, samples were incubated for another 1 hour at room temperature and FRET signals (ratio 665 nm/620 nm) were measured. EC50 values were calculated by nonlinear regression using a 4-parameter sigmoidal curve fit.
T1 sequence (Q9GZQ4 whole entry): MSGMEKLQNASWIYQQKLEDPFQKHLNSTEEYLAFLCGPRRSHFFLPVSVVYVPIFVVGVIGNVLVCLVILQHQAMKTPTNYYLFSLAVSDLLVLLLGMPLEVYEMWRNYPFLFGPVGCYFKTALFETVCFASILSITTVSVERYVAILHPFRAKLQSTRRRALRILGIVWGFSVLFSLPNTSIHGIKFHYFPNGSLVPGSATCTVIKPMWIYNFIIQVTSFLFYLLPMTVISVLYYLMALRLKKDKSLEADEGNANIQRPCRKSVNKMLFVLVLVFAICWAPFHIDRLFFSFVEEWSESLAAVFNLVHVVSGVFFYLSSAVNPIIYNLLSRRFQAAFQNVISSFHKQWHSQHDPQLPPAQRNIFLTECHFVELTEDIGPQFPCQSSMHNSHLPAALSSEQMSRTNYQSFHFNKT
(Time-resolved FRET reads energy transfer from a long-lived donor to a nearby acceptor.)

Assay [2] concerns the target T1, human NMUR2 receptor. Description: IP1 Gq HTRF assay, activation of human NMUR2 in human plasma. On the set-up: expressed in transfected cells; host or cells: CHO-K1. The following applies: CHO-K1 cells expressing human NMUR2, 100% human plasma; read-out: EC50 (hNMUR2) human plasma. The class given is cell-based. The text has this: Example 4: IP1 Gq HTRF Assay Activation of Human NMUR2 in Human Plasma Application of the Homogenous Time Resolved Fluorescence (HTRF) technology optimized for Gq coupled receptors has been described in detail in the Cisbio IP-One Gq kit manual. In brief, a FRET signal is generated between the donor label of an IP-One antibody (anti-IP1-Tb) and the acceptor label of a tagged IP-One (IP1-d2). Agonism of a Gq coupled receptor increases intracellular IP-One, which competes with labeled IP-One and leads to a reduction of the FRET signal. Frozen stocks of CHO-K1 cells stably expressing the human NMUR1 receptor or human NMUR2 receptor were thawed and 5000 cells were seeded in culture medium (HAM'S F12, 10% FCS) into each well of a 384-well assay plate. After seeding, cells were incubated for 24 h in a humidified incubator at 37° C. and 5% CO2. Next, cells were washed once with […] of wash buffer (20 mM Hepes, 1×HBSS, pH 7.4), followed by addition of […] (100% human plasma, 50 mM LiCl). Peptide agonists to be tested were dissolved in 100% DMSO and pre-diluted in plasma at a suitable concentration range for an 8 pt dose-response curve. 5 μL of peptide pre-dilution were then added to each well, followed by another 5 μL of plasma to give a final concentration of 1% DMSO. Samples were subsequently incubated for 1 hour in a humidified incubator at 37° C. The plasma solution was replaced by 20 μL of stimulation buffer. After addition of 5 μL each of IP1-d2 and anti-IP1-Tb, samples were incubated for another 1 hour at room temperature and FRET signals (ratio 665 nm/620 nm) were measured. EC50 values were calculated by nonlinear regression using a 4-parameter sigmoidal curve fit.

With `CCCC[C@H](NC(=O)[C@H](CC(C)C)N(C)C(=O)[C@H](Cc1ccccc1)NC(=O)[C@H](Cc1ccc(O)cc1)NC(=O)CN1CCN(CCNC(=O)CN(C)C(=O)CN(C)C(=O)CN(C)C(=O)CN(C)C(=O)CN(C)C(=O)CN(C)C(=O)CN(C)C(=O)CN(C)C(=O)CN(C)C(=O)CN(C)C(=O)CN(C)C(=O)CN(C)C(=O)CC[C@H](NC(=O)CC[C@H](NC(=O)CC[C@H](NC(=O)CC[C@H](NC(=O)CCCCCCCCCCCCCCCCC(=O)O)C(=O)O)C(=O)O)C(=O)O)C(=O)O)CC1)C(=O)N[C@@H](CCCN)C(=O)N1CCC[C@H]1C(=O)N[C@@H](CCCNC(=N)N)C(=O)NCC(N)=O` [Compound 5, C18DA-gGlu4-Sar12-AEPipAc-Tyr-Phe-NMeLeu-Nle-Orn-Pro-Arg-Gly-NH2], the EC50 on human NMUR2 receptor [1] came out at 1.8 nM; on human NMUR2 receptor [2], 10 nM.
For `CCCC[C@H](NC(=O)[C@H](CC(C)C)N(C)C(=O)[C@H](Cc1ccccc1)NC(=O)[C@H](Cc1ccc(O)cc1)NC(=O)CN1CCN(CCNC(=O)CN(C)C(=O)CN(C)C(=O)CN(C)C(=O)CN(C)C(=O)CN(C)C(=O)CN(C)C(=O)CN(C)C(=O)CN(C)C(=O)CN(C)C(=O)CN(C)C(=O)CN(C)C(=O)CN(C)C(=O)CC[C@H](NC(=O)CC[C@H](NC(=O)CC[C@H](NC(=O)CC[C@H](NC(=O)CCCCCCCCCCCCCCCCCCC(=O)O)C(=O)O)C(=O)O)C(=O)O)C(=O)O)CC1)C(=O)N[C@@H](CCN)C(=O)N1CCC[C@H]1C(=O)N[C@@H](CCCNC(=N)N)C(=O)NCC(N)=O` [Compound 15, C20DA-gGlu4-Sar12-AEPipAc-Tyr-Phe-NMeLeu-Nle-Dbu-Pro-Arg-Gly-NH2], in that order: 3.2 nM and 10.8 nM.
For `CCCC[C@H](NC(=O)[C@H](CC(C)C)N(C)C(=O)[C@H](Cc1ccccc1)NC(=O)[C@H](Cc1ccc(O)cc1)NC(=O)CN1CCN(CCNC(=O)CN(C)C(=O)CN(C)C(=O)CN(C)C(=O)CN(C)C(=O)CN(C)C(=O)CN(C)C(=O)CN(C)C(=O)CN(C)C(=O)CN(C)C(=O)CN(C)C(=O)CN(C)C(=O)CN(C)C(=O)CN(C)C(=O)CN(C)C(=O)CN(C)C(=O)CC[C@H](NC(=O)CC[C@H](NC(=O)CC[C@H](NC(=O)CC[C@H](NC(=O)CCCCCCCCCCCCCCCCCCC(=O)O)C(=O)O)C(=O)O)C(=O)O)C(=O)O)CC1)C(=O)N[C@@H](CCCCN)C(=O)N1CCC[C@H]1C(=O)N[C@@H](CCCNC(=N)N)C(=O)NCC(N)=O` [Compound 17, C20DA-gGlu4-Sar15-AEPipAc-Tyr-Phe-NMeLeu-Nle-Lys-Pro-Arg-Gly-NH2] (HELM PEPTIDE1{[O=C(O)CCCCCCCCCCCCCCCCCCC(=O)[*:2]].[gGlu].[gGlu].[gGlu].[gGlu].[Sar].[Sar].[Sar].[Sar].[Sar].[Sar].[Sar].[Sar].[Sar].[Sar].[Sar].[Sar].[Sar].[Sar].[Sar].[O=C(CN1CCN(CCN[*:1])CC1)[*:2]].Y.F.[meL].[Nle].K.P.R.G.[am]}$$$$V2.0), in that order: 4.7 nM and 24.8 nM.
With `CCCC[C@H](NC(=O)[C@H](CC(C)C)N(C)C(=O)[C@H](Cc1ccccc1)NC(=O)[C@H](Cc1ccc(O)cc1)NC(=O)CN1CCN(CCNC(=O)CN(C)C(=O)CN(C)C(=O)CN(C)C(=O)CN(C)C(=O)CN(C)C(=O)CN(C)C(=O)CN(C)C(=O)CN(C)C(=O)CN(C)C(=O)CN(C)C(=O)CN(C)C(=O)CN(C)C(=O)CC[C@H](NC(=O)CC[C@H](NC(=O)CC[C@H](NC(=O)CC[C@H](NC(=O)CCCCCCCCCCCCCCCCCCC(=O)O)C(=O)O)C(=O)O)C(=O)O)C(=O)O)CC1)C(=O)N[C@@H](CCCN)C(=O)N1CCC[C@H]1C(=O)N[C@@H](CCCNC(=N)N)C(=O)NCC(N)=O` [Compound 40, C20DA-gGlu4-Sar12-AEPipAc-Tyr-Phe-NMeLeu-Nle-Orn-Pro-Arg-Gly-NH2], the EC50 on human NMUR2 receptor [1] turned out to be 4.5 nM; on human NMUR2 receptor [2], 11.3 nM.
For `CCCC[C@H](NC(=O)[C@H](CC(C)C)N(C)C(=O)[C@H](Cc1ccccc1)NC(=O)[C@H](Cc1ccc(O)cc1)NC(=O)CN1CCN(CCNC(=O)CN(C)C(=O)CN(C)C(=O)CN(C)C(=O)CN(C)C(=O)CN(C)C(=O)CN(C)C(=O)CN(C)C(=O)CN(C)C(=O)CN(C)C(=O)CN(C)C(=O)CN(C)C(=O)CN(C)C(=O)CC[C@H](NC(=O)CC[C@H](NC(=O)CC[C@H](NC(=O)CCCCCCCCCCCCCCCCCCC(=O)O)C(=O)O)C(=O)O)C(=O)O)CC1)C(=O)N[C@@H](CCCNC(=N)N)C(=O)N(C)[C@@H](C)C(=O)N[C@@H](CCCNC(=N)N)C(=O)NCC(N)=O` [Compound 63, C20DA-gGlu3-Sar12-AEPipAc-Tyr-Phe-NMeLeu-Nle-Arg-NMeAla-Arg-Gly-NH2], in that order: 4.5 nM and 14.9 nM.
For `CCCC[C@H](NC(=O)[C@H](CC(C)C)N(C)C(=O)[C@H](Cc1ccccc1)NC(=O)[C@H](Cc1ccc(O)cc1)NC(=O)CN1CCN(CCNC(=O)CN(C)C(=O)CN(C)C(=O)CN(C)C(=O)CN(C)C(=O)CN(C)C(=O)CN(C)C(=O)CN(C)C(=O)CN(C)C(=O)CN(C)C(=O)CC[C@H](NC(=O)CC[C@H](NC(=O)CCCCCCCCCCCCCCCCC(=O)O)C(=O)O)C(=O)O)CC1)C(=O)N[C@@H](CCCNC(=N)N)C(=O)N(C)[C@@H](C)C(=O)N[C@@H](CCCNC(=N)N)C(=O)NCC(N)=O` [Compound 66, C18DA-gGlu2-Sar9-AEPipAc-Tyr-Phe-NMeLeu-Nle-Arg-NMeAla-Arg-Gly-NH2] (HELM PEPTIDE1{[O=C(O)CCCCCCCCCCCCCCCCC(=O)[*:2]].[gGlu].[gGlu].[Sar].[Sar].[Sar].[Sar].[Sar].[Sar].[Sar].[Sar].[Sar].[O=C(CN1CCN(CCN[*:1])CC1)[*:2]].Y.F.[meL].[Nle].R.[meA].R.G.[am]}$$$$V2.0), the EC50 on human NMUR2 receptor [1] was 1.6 nM; at human NMUR2 receptor [2], 18.9 nM.
For `CCCC[C@H](NC(=O)[C@H](CC(C)C)N(C)C(=O)[C@H](Cc1ccccc1)NC(=O)[C@H](Cc1ccc(O)cc1)NC(=O)CN1CCN(CCNC(=O)CN(C)C(=O)CN(C)C(=O)CN(C)C(=O)CN(C)C(=O)CN(C)C(=O)CN(C)C(=O)CN(C)C(=O)CN(C)C(=O)CN(C)C(=O)CC[C@H](NC(=O)CC[C@H](NC(=O)CCCCCCCCCCCCCCCCC(=O)O)C(=O)O)C(=O)O)CC1)C(=O)N[C@@H](CCCNC(=N)N)C(=O)N1CCC[C@H]1C(=O)N[C@@H](CCCNC(=N)N)C(=O)NCC(N)=O` [Compound 67, C18DA-gGlu2-Sar9-AEPipAc-Tyr-Phe-NMeLeu-Nle-Arg-Pro-Arg-Gly-NH2] (HELM PEPTIDE1{[O=C(O)CCCCCCCCCCCCCCCCC(=O)[*:2]].[gGlu].[gGlu].[Sar].[Sar].[Sar].[Sar].[Sar].[Sar].[Sar].[Sar].[Sar].[O=C(CN1CCN(CCN[*:1])CC1)[*:2]].Y.F.[meL].[Nle].R.P.R.G.[am]}$$$$V2.0), in that order: 0.9 nM and 9.9 nM.
For `CCCC[C@H](NC(=O)[C@H](CC(C)C)N(C)C(=O)[C@H](Cc1ccccc1)NC(=O)[C@H](Cc1ccc(O)cc1)NC(=O)CN1CCN(C(=O)CN(C)C(=O)CN(C)C(=O)CN(C)C(=O)CN(C)C(=O)CN(C)C(=O)CN(C)C(=O)CN(C)C(=O)CN(C)C(=O)CN(C)C(=O)CN(C)C(=O)CN(C)C(=O)CN(C)C(=O)CC[C@H](NC(=O)CC[C@H](NC(=O)CC[C@H](NC(=O)CCCCCCCCCCCCCCCCC(=O)O)C(=O)O)C(=O)O)C(=O)O)CC1)C(=O)N[C@@H](CCCNC(=N)N)C(=O)N1CCC[C@H]1C(=O)N[C@@H](CCCNC(=N)N)C(=O)NCC(N)=O` [Compound 77, C18DA-gGlu3-Sar12-PipAc-Tyr-Phe-NMeLeu-Nle-Arg-Pro-Arg-Gly-NH2], in that order: 0.8 nM and 5.2 nM.
